Legend:
alpha-1A adrenoceptors = target: T1, alpha-1A adrenoceptors (Homo sapiens, UniProt P35348); experiment: alpha-1A adrenoceptor partial agonist activity (intrinsic activity and pEC50)
T1 sequence (P35348 1-466): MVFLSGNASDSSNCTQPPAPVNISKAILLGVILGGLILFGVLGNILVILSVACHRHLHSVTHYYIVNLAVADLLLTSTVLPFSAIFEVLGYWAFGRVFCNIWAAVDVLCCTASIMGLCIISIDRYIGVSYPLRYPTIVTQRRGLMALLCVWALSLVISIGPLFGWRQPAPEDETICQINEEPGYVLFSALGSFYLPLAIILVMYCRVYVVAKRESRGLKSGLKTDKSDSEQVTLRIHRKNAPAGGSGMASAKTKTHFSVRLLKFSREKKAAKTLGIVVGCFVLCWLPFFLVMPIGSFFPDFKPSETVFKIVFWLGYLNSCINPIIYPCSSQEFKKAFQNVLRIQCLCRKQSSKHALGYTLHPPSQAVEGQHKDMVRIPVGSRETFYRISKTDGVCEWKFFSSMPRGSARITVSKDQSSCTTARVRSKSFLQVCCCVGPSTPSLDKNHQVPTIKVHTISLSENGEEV

[1] = system: Female, Dutch Belted rabbits; experiment: Anesthetized rabbit model: change in IUP and MAP, slope of IUP response; assay type: in vivo; conditions: i.v.
Experimental: In general, IUP is the intraurethral pressure and is measured as the 2 minute mean from the first peak of the urethral response (FIG. 1). MAP is the mean arterial blood pressure and is measured as the average blood pressure during the 2 minute section where IUP is measured. The durability is the slope of the IUP response in mmHg/min and is calculated immediately after the 2 minute IUP response for 5 minutes (2-7 minutes post the first peak) for the top 3 doses.
Surgery: Female, Dutch Belted rabbits (1.20-2.0 kg, Myrtle's Rabbitry, Tenn.) were anesthetized with isoflurane (3.0% at 2 to 4 L/min) and urethane (1.5 grams/kg, s.c.). In preparation for surgery, the rabbits were shaved, scrubbed (i.e., perineal area, ventral neck, and ventral, caudal surface of the abdomen) and were administered Ringers Lactate Solution (s.c.) to maintain fluids. […]
Experiment: The arterial cannula was connected to a P23XL, pressure transducer (Grass Technologies, West Warwick, R.I.) and the arterial pressure transducer and Unisensor urethral transducer catheter were connected to an Gould 13-6615-50 amplifier (Data Sciences International, St. Paul, Minn.) and Gould TA6000 recorder (Data Sciences International, St. Paul, Minn.) in parallel. All data was analyzed using Power Lab Chart version 5.0.2 (ADInstruments, Colorado Springs, Colo.) data acquisition system. […]
Measurements: The change in IUP and MAP from baseline were measured as well as the slope of the IUP response. MAP was first calculated according to the following formula, where Pd is diastolic pressure and Ps is systolic pressure: MAP=Pd+1/3(Ps−Pd). Pre-dose baseline values for IUP and MAP were assessed during a 2 min period just prior to vehicle or test compound administration. Post-dose values for IUP or MAP were determined during a 2 min period at the first peak in the IUP tracing following vehicle or test compound administration. The change in IUP and MAP induced by vehicle or test compound were then calculated by subtracting the pre-dose value from the post-dose value. […]

[2] = system: Female Yucatan Micro-Swine; experiment: Conscious pig model: IUP, MAP and HR during infusion; assay type: in vivo; conditions: infusion via ear vein for two hours
Experimental: Sling Training: Female Yucatan Micro-Swine were trained to stay in a sling for up to 4 hours. Swine were exposed to progressively longer sling durations per IACUC sling-training guideline.
Surgical Instrumentation: Female Yucatan Micro-swine were instrumented with a telemetry device with both pressure and ECG monitoring capabilities (Data Sciences International St Paul Minn.). In addition, a Bardport low profile titanium VAP was placed subcutanteously for blood sampling. All devices were implanted by the surgical veterinarian at Roche Palo Alto. Briefly, the telemetry probe body was placed subcutaneously in the cervical region. The intra-arterial pressure catheter was advanced via the superficial cervical artery into the subclavian artery for blood pressure measurement. […]
Experiment: After the swine was fully awake and stable (usually approximately 1 hour post wake up), baseline blood pressure, IUP, and heart rate parameters were determined. […]
Data Generating and Analysis Systems: Cardiovascular readings were generated by the TL11M3-D70-PCP (Data Sciences International, St. Paul, Minn.) telemetry device and associated hardware. […] IUP was monitored by a solid state catheter connected to a TA6000 Polygraph (Data Sciences International, St. Paul, Minn.). […]

CS(=O)(=O)Nc1ccc(CC2=NCCN2)c(Br)c1Cl [Formula I, N-[3-Bromo-2-chloro-4-(4,5-dihydro-1H-imidazol-2-ylmethyl)-phenyl]-methanesulfonamide]
intrinsic activity, or efficacy, as a partial agonist (alpha-1A adrenoceptors; ideally between 0.35 to 0.60): 0.38
EC50 (alpha-1A adrenoceptors; read-out: affinity, or pEC50 value (converted)): 251 nM
maximum increase in MAP [1]: 9.75 mmHg
selectivity for enhancement of intraurethral pressure (IUP) over blood pressure (MAP) ([1]; at the 10 mmHg change in IUP level (ED10 of MAP/ED10 of IUP)): 38 fold
durability of IUP response over time ([1]; slope of IUP response 2-7 minutes post the first peak, top 3 doses): increased durability of IUP response over time
IUP durability [2]: exceptional IUP durability
